{
  "source": "patent US12616203B2",
  "about": "“Use of 3-isoxazolidinones compounds as selective herbicides” (FMC Corporation, priority 2014, dated 2026)",
  "key": {"jimsonweed": {"system": "jimsonweed", "assay": "Ex15 PRE 2,4-DC + S-metolachlor, % control 28 DAT, Colby", "type": "in vivo, Datura stramonium", "text": "(§1) The weeds tested in this study were redroot pigweed (Amaranthus retroflexus, AMARE), Jimsonweed (Datura stramonium, DATST), black nightshade (Solanum nigrum, SOLNI), large crabgrass (Digitaria sanguinalis, DIGSA), Pennsylvania smartweed (Polygonum pensylvanicum, POLPY), horseweed (Conyza canadensis, ERICA), wild buckwheat (Polygonum convolvulus, POLCO). The crop tested was Corn (var. Viking).\n(§2) To determine PRE efficacy and corn injury, five rates of each 2,4 DC (36.7% CS) and S-metolachlor (Dual II Magnum®, 82.4%) were applied either alone or as tank-mix. 2,4 DC was applied at 0, 125, 170, 210, or 250 g ai/ha and S-metolachlor was applied at 0, 267, 534, 801, or 1070 g ai/ha. Additional treatments included application of premix of pyroxasulfone plus fluthiacet-methyl (Anthem™ 23.3%) at 169.9 g ai/ha and tank-mix of mesotrione (Callisto®, 40%) at 123 g plus S-metolachlor at 1252 g. Treatments were applied just after the planting of large crabgrass, Jimsonweed, black nightshade, redroot pigweed, Pennsylvania smartweed, horseweed, wild buckwheat, and corn.\n(§3) Flats were watered and fertilized routinely after treatment application. Each treatment was replicated three times. […] Corn injury was rated for bleaching and stunting."}, "Velvetleaf": {"system": "Velvetleaf", "assay": "Ex33 PRE 2,4-DC + fluthiacet-methyl + pyroxasulfone, % control 28 DAT, Colby", "type": "in vivo, Abutilon theophrasti", "text": "ANTHEM® (fluthiacet-methyl, 0.69% plus pyroxasulfone, 22.61%) was included as a standard at labeled rate, Fluthiacet-methyl at 4.9 g ai/ha and pyroxasulfone at 165 g ai/ha. […] The following weeds were screened, Palmer amaranth, Pennsylvania smartweed, velvetleaf, green foxtail, morningglory, Italian ryegrass, prickly sida, and yellow nutsedge. Crops screened were cotton, lentil, mung bean, bush bean, and cowpea. […] Thereafter flats were watered and fertilized routinely."}, "[1]": {"system": "weeds; Corn (var. Viking)", "assay": "Ex15 PRE greenhouse", "type": "in vivo", "details": "rate in the words", "text": "as §1, §2, §3"}, "weeds; Wheat and canola": {"system": "weeds; Wheat and canola", "assay": "Ex28 PRE greenhouse", "type": "in vivo", "details": "28 DAT, rate in the words", "text": "The tested weeds in this study are redroot pigweed (Amaranth retroflexus, AMARE), Italian ryegrass (Lolium perenne. multiflorum, LOLMU), wild mustard (Sinapis arvensis, SINAR), annual bluegrass (Poa annua, POAAN), wild oat (Avena fatua, AVEFA), blackgrass (Alopecurus myosuroides, ALOMY), common lambsquarters (Chenopodium album, CHEAL), littleseed canarygrass (Phalaris minor, PHAMI), common chickweed (Stellaria media, STEME), corn poppy (Papaver rhoeas, PAPRH), and silky windgrass (Apera spica-venti, APESV). The tested crops are wheat and canola.\nAdditionally, 2,4 DC was applied alone at 400 g ai/ha.\nTreatments were applied before the emergence of redroot pigweed, Italian ryegrass, wild oat, blackgrass, littleseed canarygrass, common chickweed, common lambsquarters, corn poppy, wild mustard, annual bluegrass, silky windgrass, canola, and wheat. […] Flats were watered and fertilized routinely after treatment application."}, "Wild buckwheat": {"system": "Wild buckwheat", "assay": "Ex12 PRE 2,4-DC + dimethenamid-P, % control 28 DAT, Colby", "type": "in vivo, Polygonum convolvulus", "experimental": "The tested weeds include: wild buckwheat (Polygonum convolvulus, POLCO), velvetleaf (Abutilon theophrasti, ABUTH), cheat (Bromus secalinus, BROSE), wild oat (Avena fatua, AVEFA), radish (Raphanus sativus, RAPSN), corn poppy (Papaver rhoeas, PAPRH), yellow foxtail (Setaria pumila, SETLU), Italian ryegrass (Lolium perenne ssp. multiflorum, LOLMU). The tested crop was Oilseed rape.\nThis greenhouse study was conducted to assess the preemergence (PRE) weed control and oilseed rape tolerance with 2,4 DC (CS 36.7%) and dimethenamid-P (Outlook®, 63.9%) tank-mix combinations.\nMetazachlor (Butisan, 43.1%) plus dimethenamid-P applied as tank mix at 500 g each was applied as commercial standard. Treatments were replicated 3 times and flats were watered after planting but before the treatment and then lightly watered after treatment application. Thereafter flats were watered and fertilized routinely."}},
  "note": "Entries after “also recorded” stand apart in the source; their conditions may differ.",
  "data": [
    {"smiles": "CC1(C)CON(Cc2ccc(Cl)cc2Cl)C1=O", "note": "[2,4-DC, 2-(2,4-dichlorophenyl)methyl-4,4-dimethyl-3-isoxazolidinone]", "values": [
      {"measurement": "X", "setting": "jimsonweed; 2,4-DC alone 125 g ai/ha", "value": 37, "unit": "%"},
      {"measurement": "X", "setting": "jimsonweed; 2,4-DC alone 170 g ai/ha", "value": 40, "unit": "%"},
      {"measurement": "X", "setting": "jimsonweed; 2,4-DC alone 210 g ai/ha", "value": 48, "unit": "%"},
      {"measurement": "X", "setting": "jimsonweed; 2,4-DC alone 250 g ai/ha", "value": 53, "unit": "%"},
      {"measurement": "X", "setting": "Velvetleaf; 2,4-DC alone 31 g ai/ha", "value": 7, "unit": "%"},
      {"measurement": "X", "setting": "Velvetleaf; 2,4-DC alone 63 g ai/ha", "value": 23, "unit": "%"},
      {"measurement": "X", "setting": "Velvetleaf; 2,4-DC alone 125 g ai/ha", "value": 27, "unit": "%"},
      {"measurement": "X", "setting": "Velvetleaf; 2,4-DC alone 250 g ai/ha", "value": 30, "unit": "%"},
      {"measurement": "X", "setting": "Velvetleaf; 2,4-DC alone 375 g ai/ha", "value": 89, "unit": "%"},
      {"measurement": "weed control / crop safety in words", "setting": "[1]", "value": "alone controlled large crabgrass at 170 g ai/ha or 250 g and it was safe on corn at all rate"},
      {"measurement": "weed control / crop safety in words", "setting": "weeds; Wheat and canola", "value": "alone provided control of pigweed and corn poppy at 400 g, Italian ryegrass at ≥200 g, blackgrass and lambsquarters at 400 g, and chickweed at all rates; also recorded: caused greater than 10% injury to canola at all rates and 2,4 DC was safe on wheat up to 200 g ai/ha"},
      {"measurement": "X", "setting": "Wild buckwheat; 2,4-DC alone 125 g ai/ha", "value": 8, "unit": "%"},
      {"measurement": "X", "setting": "Wild buckwheat; 2,4-DC alone 170 g ai/ha", "value": 25, "unit": "%"},
      {"measurement": "X", "setting": "Wild buckwheat; 2,4-DC alone 210 g ai/ha", "value": 28, "unit": "%"},
      {"measurement": "X", "setting": "Wild buckwheat; 2,4-DC alone 250 g ai/ha", "value": 38, "unit": "%"}
    ]}
  ]
}
